Measurements published in ChEMBL document CHEMBL3045601, “Synthesis of new quinoline-2-pyrazoline-based thiazolinone derivatives as potential antimicrobial agents” (2013).
Converted amounts (≈) assume the structure as drawn.

Experiments:
Type in all cases: functional
Aspergillus clavatus = experiment: Antifungal activity against Aspergillus clavatus MTCC 1323 assessed as growth inhibition after 48 hr by NCCLS broth microdilution method; conditions: MTCC 1323, 48 h
Aspergillus niger = experiment: Antifungal activity against Aspergillus niger MTCC 282 assessed as growth inhibition after 48 hr by NCCLS broth microdilution method; conditions: MTCC 282, 48 h
Candida albicans = experiment: Antifungal activity against Candida albicans MTCC 227 assessed as growth inhibition after 48 hr by NCCLS broth microdilution method; conditions: MTCC 227, 48 h
Pseudomonas aeruginosa = experiment: Antibacterial activity against Pseudomonas aeruginosa MTCC 1688 assessed as growth inhibition after 24 hr by NCCLS broth microdilution method; conditions: MTCC 1688, 24 h
Escherichia coli = experiment: Antibacterial activity against Escherichia coli MTCC 443 assessed as growth inhibition after 24 hr by NCCLS broth microdilution method; conditions: MTCC 443, 24 h
Staphylococcus aureus = experiment: Antibacterial activity against Staphylococcus aureus MTCC 96 assessed as growth inhibition after 24 hr by NCCLS broth microdilution method; conditions: MTCC 96, 24 h
Streptococcus pyogenes = experiment: Antibacterial activity against Streptococcus pyogenes MTCC 442 assessed as growth inhibition after 24 hr by NCCLS broth microdilution method; conditions: MTCC 442, 24 h

| Structure (SMILES) | MIC (Aspergillus clavatus) | MIC (Aspergillus niger) | MIC (Candida albicans) | MIC (Pseudomonas aeruginosa) | MIC (Escherichia coli) | MIC (Staphylococcus aureus) | MIC (Streptococcus pyogenes) |
| --- | --- | --- | --- | --- | --- | --- | --- |
| Cc1ccc2nc(Cl)c(C3CC(c4ccc(F)cc4)=NN3C3=NC(=O)CS3)cc2c1 (stereo unspecified) | 100 µg/mL (≈ 228 µM) | 250 µg/mL (≈ 570 µM) | 250 µg/mL (≈ 570 µM) | 50 µg/mL (≈ 114 µM) | 50 µg/mL (≈ 114 µM) | 100 µg/mL (≈ 228 µM) | 25 µg/mL (≈ 57 µM) |
| Cc1ccc2nc(Cl)c(C3CC(c4ccccc4[N+](=O)[O-])=NN3C3=NC(=O)CS3)cc2c1 (stereo unspecified) | 12.5 µg/mL (≈ 26.8 µM) | 50 µg/mL (≈ 107 µM) | 250 µg/mL (≈ 537 µM) | 12.5 µg/mL (≈ 26.8 µM) | 25 µg/mL (≈ 53.7 µM) | 250 µg/mL (≈ 537 µM) | 25 µg/mL (≈ 53.7 µM) |
| Cc1ccc2nc(Cl)c(C3CC(c4cccc([N+](=O)[O-])c4)=NN3C3=NC(=O)CS3)cc2c1 (stereo unspecified) | 50 µg/mL (≈ 107 µM) | 100 µg/mL (≈ 215 µM) | 500 µg/mL (≈ 1070 µM) | 500 µg/mL (≈ 1070 µM) | 250 µg/mL (≈ 537 µM) | 500 µg/mL (≈ 1070 µM) | 500 µg/mL (≈ 1070 µM) |
| Cc1ccc2nc(Cl)c(C3CC(c4ccc([N+](=O)[O-])cc4)=NN3C3=NC(=O)CS3)cc2c1 (stereo unspecified) | 100 µg/mL (≈ 215 µM) | 25 µg/mL (≈ 53.7 µM) | 500 µg/mL (≈ 1070 µM) | 250 µg/mL (≈ 537 µM) | 50 µg/mL (≈ 107 µM) | 100 µg/mL (≈ 215 µM) | 50 µg/mL (≈ 107 µM) |
| Cc1ccc2nc(Cl)c(C3CC(c4ccccc4)=NN3C3=NC(=O)CS3)cc2c1 (stereo unspecified) | 500 µg/mL (≈ 1190 µM) | 500 µg/mL (≈ 1190 µM) | 1000 µg/mL (≈ 2380 µM) | 250 µg/mL (≈ 594 µM) | 500 µg/mL (≈ 1190 µM) | 250 µg/mL (≈ 594 µM) | 500 µg/mL (≈ 1190 µM) |
| Cc1ccc2nc(Cl)c(C3CC(c4ccccc4O)=NN3C3=NC(=O)CS3)cc2c1 (stereo unspecified) | 1000 µg/mL (≈ 2290 µM) | 500 µg/mL (≈ 1140 µM) | 1000 µg/mL (≈ 2290 µM) | 500 µg/mL (≈ 1140 µM) | 500 µg/mL (≈ 1140 µM) | 500 µg/mL (≈ 1140 µM) | 250 µg/mL (≈ 572 µM) |
| Cc1ccc2nc(Cl)c(C3CC(c4ccc(O)cc4)=NN3C3=NC(=O)CS3)cc2c1 (stereo unspecified) | 1000 µg/mL (≈ 2290 µM) | 1000 µg/mL (≈ 2290 µM) | 1000 µg/mL (≈ 2290 µM) | 250 µg/mL (≈ 572 µM) | 500 µg/mL (≈ 1140 µM) | 500 µg/mL (≈ 1140 µM) | 250 µg/mL (≈ 572 µM) |
| COc1ccc(C2=NN(C3=NC(=O)CS3)C(c3cc4cc(C)ccc4nc3Cl)C2)cc1 (stereo unspecified) | 500 µg/mL (≈ 1110 µM) | 500 µg/mL (≈ 1110 µM) | 1000 µg/mL (≈ 2220 µM) | 500 µg/mL (≈ 1110 µM) | 500 µg/mL (≈ 1110 µM) | 500 µg/mL (≈ 1110 µM) | 500 µg/mL (≈ 1110 µM) |
| Cc1ccc2nc(Cl)c(C3CC(c4ccccc4Cl)=NN3C3=NC(=O)CS3)cc2c1 (stereo unspecified) | 100 µg/mL (≈ 220 µM) | 50 µg/mL (≈ 110 µM) | 100 µg/mL (≈ 220 µM) | 50 µg/mL (≈ 110 µM) | 50 µg/mL (≈ 110 µM) | 250 µg/mL (≈ 549 µM) | 50 µg/mL (≈ 110 µM) |
| Cc1ccc2nc(Cl)c(C3CC(c4ccc(Cl)cc4)=NN3C3=NC(=O)CS3)cc2c1 (stereo unspecified) | 50 µg/mL (≈ 110 µM) | 100 µg/mL (≈ 220 µM) | 500 µg/mL (≈ 1100 µM) | 100 µg/mL (≈ 220 µM) | 250 µg/mL (≈ 549 µM) | 50 µg/mL (≈ 110 µM) | 50 µg/mL (≈ 110 µM) |
| Cc1ccc2nc(Cl)c(C3CC(c4ccccc4F)=NN3C3=NC(=O)CS3)cc2c1 (stereo unspecified) | 500 µg/mL (≈ 1140 µM) | 50 µg/mL (≈ 114 µM) | 100 µg/mL (≈ 228 µM) | 250 µg/mL (≈ 570 µM) | 25 µg/mL (≈ 57 µM) | 100 µg/mL (≈ 228 µM) | 500 µg/mL (≈ 1140 µM) |
| Cc1ccc2nc(Cl)c(C3CC(c4cccc(F)c4)=NN3C3=NC(=O)CS3)cc2c1 (stereo unspecified) | 500 µg/mL (≈ 1140 µM) | 500 µg/mL (≈ 1140 µM) | 1000 µg/mL (≈ 2280 µM) | 100 µg/mL (≈ 228 µM) | 500 µg/mL (≈ 1140 µM) | 500 µg/mL (≈ 1140 µM) | 100 µg/mL (≈ 228 µM) |
| CC1(C)S[C@@H]2[C@H](NC(=O)[C@H](N)c3ccccc3)C(=O)N2[C@H]1C(=O)O [AMPICILLIN] | – | – | – | 100 µg/mL (≈ 286 µM) | 100 µg/mL (≈ 286 µM) | 250 µg/mL (≈ 715 µM) | 100 µg/mL (≈ 286 µM) |
| COC1=CC(=O)C[C@@H](C)[C@]12Oc1c(Cl)c(OC)cc(OC)c1C2=O [GRISEOFULVIN] | 100 µg/mL (≈ 283 µM) | 100 µg/mL (≈ 283 µM) | 500 µg/mL (≈ 1420 µM) | – | – | – | – |
